According to ChEMBL document CHEMBL5465560, “Selectivity Literature for EUbOPEN Chemogenomic Library” (2024):

Experiments:
[1] = target: Epithelial discoidin domain-containing receptor 1 (Homo sapiens) (UniProt Q08345); experiment: Selectivity interaction (KinomeScan (DiscoverX)) EUB0001049a DDR1; details: at 1 µM
[2] = target: Histone-lysine N-methyltransferase ASH1L (Homo sapiens) (UniProt Q9NR48); experiment: Selectivity interaction (Human bromodomain panel (DSF assay)) EUB0000233b ASH1L
[3] = target: Rho-associated protein kinase 1 (Homo sapiens) (UniProt Q13464); experiment: Selectivity interaction (ActivX KiNativ screen (kinase selectivity in THP-1 cell lysates)) EUB0000639a ROCK1; format: subcellular; details: lysate
[4] = target: T1, Scaffold protein ILK (Homo sapiens) (UniProt Q13418); experiment: Selectivity interaction (ActivX KiNativ screen (kinase selectivity in THP-1 cell lysates)) EUB0000639a ILK; format: subcellular; details: lysate, at 5 µM
T1 sequence (whole entry): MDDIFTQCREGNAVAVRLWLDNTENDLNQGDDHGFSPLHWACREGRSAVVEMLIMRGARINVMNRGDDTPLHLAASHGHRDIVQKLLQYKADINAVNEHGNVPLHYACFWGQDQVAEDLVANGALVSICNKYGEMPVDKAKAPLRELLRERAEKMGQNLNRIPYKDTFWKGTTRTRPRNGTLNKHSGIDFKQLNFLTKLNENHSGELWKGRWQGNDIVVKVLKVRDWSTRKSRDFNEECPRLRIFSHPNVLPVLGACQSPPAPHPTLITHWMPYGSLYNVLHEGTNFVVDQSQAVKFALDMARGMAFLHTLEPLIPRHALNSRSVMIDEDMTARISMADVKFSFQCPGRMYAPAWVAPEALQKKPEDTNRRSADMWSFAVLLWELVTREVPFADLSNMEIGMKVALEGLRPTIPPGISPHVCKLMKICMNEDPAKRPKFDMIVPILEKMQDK

[5] = target: T2, Serine/threonine-protein kinase greatwall (Homo sapiens) (UniProt Q96GX5); experiment: Selectivity interaction (ActivX KiNativ screen (kinase selectivity in THP-1 cell lysates)) EUB0000639a MASTL; format: subcellular; details: lysate, at 0.04 µM
T2 sequence (whole entry): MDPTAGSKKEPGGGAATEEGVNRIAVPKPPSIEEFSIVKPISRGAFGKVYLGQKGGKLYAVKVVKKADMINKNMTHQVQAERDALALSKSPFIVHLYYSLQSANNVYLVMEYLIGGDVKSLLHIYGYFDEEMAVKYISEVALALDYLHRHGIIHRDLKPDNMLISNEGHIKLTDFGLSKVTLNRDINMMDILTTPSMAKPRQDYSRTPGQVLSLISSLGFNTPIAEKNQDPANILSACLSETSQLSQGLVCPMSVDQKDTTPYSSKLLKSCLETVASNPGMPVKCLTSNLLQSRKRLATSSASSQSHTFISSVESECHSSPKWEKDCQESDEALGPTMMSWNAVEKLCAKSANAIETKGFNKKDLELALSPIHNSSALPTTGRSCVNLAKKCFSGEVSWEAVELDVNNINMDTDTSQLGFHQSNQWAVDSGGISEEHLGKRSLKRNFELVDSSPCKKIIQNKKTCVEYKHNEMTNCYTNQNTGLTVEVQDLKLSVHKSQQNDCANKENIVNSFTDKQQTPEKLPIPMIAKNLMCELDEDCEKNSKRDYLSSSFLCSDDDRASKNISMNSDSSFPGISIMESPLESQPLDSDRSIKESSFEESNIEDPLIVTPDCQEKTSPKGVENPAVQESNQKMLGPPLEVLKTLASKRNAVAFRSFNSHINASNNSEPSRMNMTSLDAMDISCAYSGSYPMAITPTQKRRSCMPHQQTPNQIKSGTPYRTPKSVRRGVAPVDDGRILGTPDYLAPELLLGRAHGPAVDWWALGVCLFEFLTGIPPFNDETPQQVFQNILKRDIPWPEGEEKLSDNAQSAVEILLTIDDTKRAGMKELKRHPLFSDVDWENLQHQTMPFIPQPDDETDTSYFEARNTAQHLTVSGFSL

[6] = target: Serine/threonine-protein kinase N2 (Homo sapiens, UniProt Q16513); experiment: Selectivity interaction (KinomeScan (DiscoverX)) EUB0000618a PKN2; details: at 10 µM
[7] = target: Interferon-induced, double-stranded RNA-activated protein kinase (Homo sapiens) (UniProt P19525); experiment: Selectivity interaction (KinomeScan (DiscoverX)) EUB0000655a EIF2AK2; details: at 10 µM
[8] = target: Cyclin-dependent kinase 2/cyclin E1 (Homo sapiens) (UniProt P24864+P24941); experiment: (§1) Selectivity interaction (LanthaScreen Eu Kinase Binding Assay) EUB0001632a CDK2; format: protein-complex assay; details: at 10 µM
[9] = target: CDK2/Cyclin A1 (Homo sapiens) (UniProt P24941+P78396); experiment: as §1; format: protein-complex assay; details: at 10 µM
[10] = target: CDK2/Cyclin O (Homo sapiens) (UniProt P24941+P22674); experiment: as §1; format: protein-complex assay; details: at 10 µM

Rho-associated protein kinase 1 (Homo sapiens), sequence (Q13464 2-1354 limits assumed): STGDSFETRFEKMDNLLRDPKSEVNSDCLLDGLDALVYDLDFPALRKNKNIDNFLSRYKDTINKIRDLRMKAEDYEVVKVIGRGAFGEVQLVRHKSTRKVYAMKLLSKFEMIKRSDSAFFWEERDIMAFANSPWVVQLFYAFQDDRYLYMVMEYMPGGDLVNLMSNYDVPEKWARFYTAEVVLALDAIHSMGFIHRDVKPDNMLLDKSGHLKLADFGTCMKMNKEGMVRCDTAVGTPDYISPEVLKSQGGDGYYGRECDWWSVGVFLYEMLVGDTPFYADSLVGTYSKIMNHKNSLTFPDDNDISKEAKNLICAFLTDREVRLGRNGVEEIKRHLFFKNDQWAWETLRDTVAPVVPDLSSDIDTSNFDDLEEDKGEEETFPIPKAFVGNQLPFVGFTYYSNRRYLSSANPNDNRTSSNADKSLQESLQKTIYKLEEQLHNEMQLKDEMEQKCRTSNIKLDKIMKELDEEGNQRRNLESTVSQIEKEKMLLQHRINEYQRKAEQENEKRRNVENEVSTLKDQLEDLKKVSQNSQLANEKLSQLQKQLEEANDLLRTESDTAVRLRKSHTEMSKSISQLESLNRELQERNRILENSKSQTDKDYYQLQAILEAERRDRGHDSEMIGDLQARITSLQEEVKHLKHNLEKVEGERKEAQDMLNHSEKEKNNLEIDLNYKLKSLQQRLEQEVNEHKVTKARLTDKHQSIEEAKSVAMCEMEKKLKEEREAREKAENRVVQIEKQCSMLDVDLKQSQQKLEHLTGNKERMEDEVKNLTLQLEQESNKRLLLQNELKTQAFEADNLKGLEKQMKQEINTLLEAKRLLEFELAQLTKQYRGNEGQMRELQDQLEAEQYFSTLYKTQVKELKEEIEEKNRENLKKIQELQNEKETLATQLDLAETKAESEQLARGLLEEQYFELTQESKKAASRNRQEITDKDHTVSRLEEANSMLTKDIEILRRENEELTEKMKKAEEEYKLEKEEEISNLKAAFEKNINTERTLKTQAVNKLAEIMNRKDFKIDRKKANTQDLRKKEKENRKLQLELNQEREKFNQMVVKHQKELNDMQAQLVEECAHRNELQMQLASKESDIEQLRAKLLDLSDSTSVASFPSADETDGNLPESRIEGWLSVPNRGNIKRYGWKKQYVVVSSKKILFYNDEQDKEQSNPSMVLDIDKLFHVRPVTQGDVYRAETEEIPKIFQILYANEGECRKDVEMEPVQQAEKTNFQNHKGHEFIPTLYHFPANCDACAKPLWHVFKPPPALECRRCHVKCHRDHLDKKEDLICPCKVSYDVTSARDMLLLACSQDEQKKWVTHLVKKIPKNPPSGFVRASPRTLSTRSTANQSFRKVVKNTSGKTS
Epithelial discoidin domain-containing receptor 1 (Homo sapiens), sequence (Q08345 whole entry, the tested form may be a part): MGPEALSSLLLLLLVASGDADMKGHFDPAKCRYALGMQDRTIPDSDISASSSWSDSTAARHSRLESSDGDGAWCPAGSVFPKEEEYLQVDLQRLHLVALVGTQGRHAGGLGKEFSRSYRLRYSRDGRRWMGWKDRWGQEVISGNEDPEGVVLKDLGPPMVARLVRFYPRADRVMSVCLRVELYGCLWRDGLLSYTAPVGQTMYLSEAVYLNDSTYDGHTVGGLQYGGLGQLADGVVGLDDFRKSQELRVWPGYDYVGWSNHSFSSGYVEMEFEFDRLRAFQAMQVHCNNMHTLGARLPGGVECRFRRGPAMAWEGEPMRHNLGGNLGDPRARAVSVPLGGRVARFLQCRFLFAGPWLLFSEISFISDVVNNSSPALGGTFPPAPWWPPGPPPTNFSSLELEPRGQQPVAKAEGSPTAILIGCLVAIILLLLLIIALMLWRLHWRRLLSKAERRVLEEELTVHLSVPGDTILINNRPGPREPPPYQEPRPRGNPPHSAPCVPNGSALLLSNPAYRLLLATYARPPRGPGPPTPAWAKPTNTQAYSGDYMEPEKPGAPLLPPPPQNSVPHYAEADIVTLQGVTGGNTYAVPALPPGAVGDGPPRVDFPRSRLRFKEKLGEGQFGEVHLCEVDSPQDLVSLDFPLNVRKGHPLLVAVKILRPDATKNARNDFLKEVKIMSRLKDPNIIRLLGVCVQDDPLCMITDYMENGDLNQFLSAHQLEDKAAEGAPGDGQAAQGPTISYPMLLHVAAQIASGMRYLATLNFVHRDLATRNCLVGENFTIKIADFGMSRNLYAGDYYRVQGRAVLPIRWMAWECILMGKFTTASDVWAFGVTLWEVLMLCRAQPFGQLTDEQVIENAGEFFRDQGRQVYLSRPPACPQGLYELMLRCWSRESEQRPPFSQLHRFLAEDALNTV
Interferon-induced, double-stranded RNA-activated protein kinase (Homo sapiens), sequence (P19525 whole entry): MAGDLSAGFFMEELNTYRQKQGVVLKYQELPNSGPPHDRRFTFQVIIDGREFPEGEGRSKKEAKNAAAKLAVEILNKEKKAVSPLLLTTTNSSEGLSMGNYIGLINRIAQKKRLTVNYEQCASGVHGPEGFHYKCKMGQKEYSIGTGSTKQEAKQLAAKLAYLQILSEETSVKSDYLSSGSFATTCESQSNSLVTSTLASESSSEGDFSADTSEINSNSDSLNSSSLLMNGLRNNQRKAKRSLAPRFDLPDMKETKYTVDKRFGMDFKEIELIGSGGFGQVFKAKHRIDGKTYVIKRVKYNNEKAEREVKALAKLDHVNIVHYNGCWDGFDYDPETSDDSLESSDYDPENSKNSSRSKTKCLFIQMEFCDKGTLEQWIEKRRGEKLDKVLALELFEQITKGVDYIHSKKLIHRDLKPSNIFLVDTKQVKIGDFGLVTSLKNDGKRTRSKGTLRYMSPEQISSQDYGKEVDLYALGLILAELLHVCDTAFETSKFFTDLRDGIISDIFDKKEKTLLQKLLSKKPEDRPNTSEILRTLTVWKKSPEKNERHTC
Serine/threonine-protein kinase N2, sequence (Q16513 whole entry, looked up): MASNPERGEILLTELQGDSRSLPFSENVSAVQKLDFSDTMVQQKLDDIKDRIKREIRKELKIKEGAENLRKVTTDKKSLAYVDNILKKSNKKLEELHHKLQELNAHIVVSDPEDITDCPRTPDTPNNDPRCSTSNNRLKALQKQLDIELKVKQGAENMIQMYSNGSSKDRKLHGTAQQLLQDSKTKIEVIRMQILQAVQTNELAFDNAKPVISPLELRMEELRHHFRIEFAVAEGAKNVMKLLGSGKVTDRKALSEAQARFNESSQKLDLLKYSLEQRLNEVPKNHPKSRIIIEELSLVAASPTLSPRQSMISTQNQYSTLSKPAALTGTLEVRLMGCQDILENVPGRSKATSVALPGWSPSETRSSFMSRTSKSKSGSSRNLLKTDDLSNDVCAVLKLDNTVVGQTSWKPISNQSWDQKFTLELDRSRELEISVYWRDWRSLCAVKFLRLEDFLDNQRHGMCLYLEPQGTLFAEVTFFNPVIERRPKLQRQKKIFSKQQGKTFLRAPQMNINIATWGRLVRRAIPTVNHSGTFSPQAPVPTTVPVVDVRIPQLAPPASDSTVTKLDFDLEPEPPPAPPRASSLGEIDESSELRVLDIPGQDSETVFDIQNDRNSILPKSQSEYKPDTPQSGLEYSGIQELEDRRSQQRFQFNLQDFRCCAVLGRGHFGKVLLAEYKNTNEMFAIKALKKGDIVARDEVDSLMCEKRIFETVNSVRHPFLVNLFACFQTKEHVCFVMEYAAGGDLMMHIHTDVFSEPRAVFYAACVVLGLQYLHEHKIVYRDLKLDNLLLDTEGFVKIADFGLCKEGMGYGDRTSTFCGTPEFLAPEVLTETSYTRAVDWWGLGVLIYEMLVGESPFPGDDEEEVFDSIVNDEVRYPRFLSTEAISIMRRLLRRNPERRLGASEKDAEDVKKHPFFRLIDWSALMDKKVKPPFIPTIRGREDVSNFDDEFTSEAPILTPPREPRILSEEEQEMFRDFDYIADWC

For `COc1cc(Nc2nc(C)cc(-c3cnn4nc(OC)ccc34)n2)cc(C(F)(F)F)c1`, the % of control [1] was 99%.

`CN(C)CCCOc1ccc(-c2cc(NCCCn3cccn3)nc(S(C)(=O)=O)n2)cc1` gave a dTM [2] of less than 2 K.

With `CC[C@@H]1[C@H](F)C(=O)N[C@@H]1COc1nccc2cc(C(N)=O)c(OC)cc12` [ZIMLOVISERTIB] the % of inhibition ([3]; at 0.01 µM) was 12.6%, the % of inhibition ([3]; at 0.04 µM) was -4.3% and the % of inhibition ([3]; at 0.2 µM) was -10.6%. The % of inhibition ([3]; at 1 µM) was 18.3%, the % of inhibition ([3]; at 5 µM) was 53.9% and the % of inhibition [4] was -24.1%. It also gave a % of inhibition [5] of 3.9%.

`O[C@H]1CC[C@H](Nc2ncc3nc(Nc4c(F)cc(F)cc4F)n([C@H]4CCOC4)c3n2)CC1` was tested, and the % of control [6] was 97%.

Compound `CN(C)CCOc1ccc(-c2nc(-c3ccncc3)c(-c3ccc4c(c3)CC/C4=N\O)[nH]2)cc1` has a % of control [7] of 61%.

For `Cn1cc(-n2cnc3c(NCc4nc5cc(Cl)c(Cl)cc5[nH]4)nc(N4CCOCC4)nc32)cn1`, the % of inhibition [8] was -64.3%, the % of inhibition [9] was -33.3% and the % of inhibition [10] was -162%.
